Values after ≈ are worked out from the molar mass of the structure shown.
Assay: Solubility at pH 7 after 24 hrs by LC-MS/MS analysis
Format: physicochemical
Settings: buffer

Row | Structure (SMILES) | solubility at 24 h [µM]
1 | Cc1ccccc1Nc1ncc2c(n1)-c1c(c(C(N)=O)nn1C)CC2 | 3 (≈ 1 µg/mL)
2 | COC(=O)c1ccccc1Nc1ncc2c(n1)-c1c(c(C(N)=O)nn1C)CC2 | 2 (≈ 0.757 µg/mL)
3 | Cn1nc(C(N)=O)c2c1-c1nc(Nc3ccccc3Cc3ccccc3)ncc1CC2 | < 1
4 | Cn1nc(C(N)=O)c2c1-c1nc(Nc3ccccc3C(N)=O)ncc1CC2 | < 1
5 | Cn1nc(C(N)=O)c2c1-c1nc(Nc3ccccc3S(N)(=O)=O)ncc1CC2 | 4 (≈ 1.6 µg/mL)
6 | Cn1nc(C(N)=O)c2c1-c1nc(Nc3ccccc3C(=O)c3ccccc3)ncc1CC2 | < 1
7 | Cn1nc(C(N)=O)c2c1-c1nc(Nc3ccccc3Sc3ccccc3)ncc1CC2 | < 1
8 | CNc1ccccc1Nc1ncc2c(n1)-c1c(c(C(N)=O)nn1C)CC2 | 23 (≈ 8.04 µg/mL)
9 | CC(=O)c1ccc(N2CCN(C)CC2)cc1Nc1ncc2c(n1)-c1c(c(C(N)=O)nn1C)CC2 | 18 (≈ 8.29 µg/mL)
10 | COc1cc(N2CCN(C)CC2)ccc1Nc1ncc2c(n1)-c1c(c(C(N)=O)nn1C)CC2 | > 225
11 | Cn1nc(C(N)=O)c2c1-c1nc(Nc3ccccc3F)ncc1CC2 | 3 (≈ 1.02 µg/mL)
12 | CC(C)c1ccccc1Nc1ncc2c(n1)-c1c(c(C(N)=O)nn1C)CC2 | 2 (≈ 0.725 µg/mL)
13 | Cn1nc(C(N)=O)c2c1-c1nc(Nc3ccccc3C(F)(F)F)ncc1CC2 | 4 (≈ 1.55 µg/mL)
14 | CC(=O)Nc1ccccc1Nc1ncc2c(n1)-c1c(c(C(N)=O)nn1C)CC2 | 16 (≈ 6.04 µg/mL)
15 | CC(=O)c1c(Nc2ncc3c(n2)-c2c(c(C(N)=O)nn2C)CC3)cccc1N1CCN(C)CC1 | 170 (≈ 78.3 µg/mL)

Next, values leading:

Row | solubility at 24 h [µM] | Structure (SMILES)
16 | 3 (≈ 1.05 µg/mL) | COc1ccccc1Nc1ncc2c(n1)-c1c(c(C(N)=O)nn1C)CC2
17 | 2 (≈ 0.733 µg/mL) | CSc1ccccc1Nc1ncc2c(n1)-c1c(c(C(N)=O)nn1C)CC2
18 | < 1 | Cn1nc(C(N)=O)c2c1-c1nc(Nc3ccccc3-c3ccccc3)ncc1CC2
19 | < 1 | Cn1nc(C(N)=O)c2c1-c1nc(Nc3ccccc3Nc3ccccc3)ncc1CC2
20 | 83 (≈ 38.2 µg/mL) | CC(=O)c1cc(N2CCN(C)CC2)ccc1Nc1ncc2c(n1)-c1c(c(C(N)=O)nn1C)CC2
21 | < 1 | Cn1nc(C(N)=O)c2c1-c1nc(Nc3ccccc3Oc3ccccc3)ncc1CC2
22 | 190 (≈ 63.7 µg/mL) | Cn1nc(C(N)=O)c2c1-c1nc(Nc3ccccc3N)ncc1CC2
23 | 2 (≈ 0.725 µg/mL) | CC(=O)c1ccccc1Nc1ncc2c(n1)-c1c(c(C(N)=O)nn1C)CC2
24 | 3 (≈ 0.961 µg/mL) | Cn1nc(C(N)=O)c2c1-c1nc(Nc3ccccc3)ncc1CC2

Assay: Apparent permeability across human Caco-2 cell membrane at 10 uM after 120 mins by LC-MS/MS analysis
Format: ADME, cell-based
Settings: not given

Row | Papp at 2 h, 10 µM [×10⁻⁶ cm/s] | Structure (SMILES)
25 | 2.7 | Cn1nc(C(=O)O)c2c1-c1nc(Nc3ccccc3)ncc1CC2
26 | 58.3 | Cn1nc(C(N)=O)c2c1-c1nc(Nc3ccccc3)ncc1CC2
